According to patent US5444049A, “Peptide compounds derived from boronic acid” (Adir et Compagnie, priority 1993, dated 1995):
Where two headings read alike, the source gives them in different places.

Columns and labels:
[1] = test system: OFA rats; assay: Anticoagulant activity ex vivo, intravenous administration, activated cephalin time; format: in vivo, rat; conditions: 0.5 mg/kg i.v.
Method: OFA rats, fasted or otherwise, are anesthetized with pentobarbital (60 mg/kg i.p.). The carotid artery and the jugular vein are exposed and catheterized. The catheters are flushed with citrated (1/40) physiological solution. After installation of the catheters, a sample of 1.5 cm^3 of arterial blood is withdrawn into 0.109M citrate (1/9).
30 minutes later, the test product is administered i.v. in a volume of 1 ml.
Arterial blood samples (1.5 ml) are then withdrawn at 1 minute 30 sec and 5, 15, 30 and 60 minutes.
As each sample is withdrawn, 1.5 ml of citrated physiological solution are reinjected into the animal via the carotid.
The blood tubes are centrifuged for 15 minutes at 3000 g (preparation of plasma). 100 μl of plasma are incubated with 100 gl of activated cephalin. The time of onset of the coagulation phenomenon is measured after adding 100 μl of calcium.
The compounds of the invention, tested at a dose of 0.5 mg/kg, increase the activated cephalin time (ACT) in a dose-dependent manner. […] The increase in ACT noted with the compounds of the invention is still significant 60 minutes after their administration. The results are reproduced in the following table, and show the factors by which the coagulation time is increased.

[2] = test system: thrombin time of human platelet-poor plasma; assay: Anticoagulant activity: thrombin time in human plasma; format: biochemical; conditions: for Man CTT2 (concentration which multiplies the thrombin time by 2): human plasma, 2 minutes at 37° C.
Method: (§1) In the presence of a standard quantity of thrombin, a normal plasma coagulates in a defined and constant time, termed the thrombin time (TT). Any prolongation of this time reflects an abnormality of fibrin formation (coagulation).
(§2) Sprague-Dawley rats are anesthetized with pentobarbital sodium (60 mg/kg i.p.), the carotid artery is catheterized and blood samples are taken into trisodium citrate solution (0.109M). A platelet-poor plasma is obtained by centrifugation of the blood samples (3000 g, 15 minutes). Samples of venous blood are also taken from humans at the bend of the arm. Anticoagulation of the samples and preparation of platelet-poor plasma are identical to those carried out with rat blood.
(§3) The thrombin time is obtained with Prest thrombin reagent and determined automatically using a coagulometer.
(§4) The antagonist or the solvent (10 μl) is added to the plasma (90 μl) and then incubated for 2 minutes at 37° C. 100 µl of thrombin are added as the chronometer is started.
(§5) Under these conditions, the TT values obtained in the control plasma are of the order of 30 seconds in rats and 20 seconds in humans. The activity of an antagonist is evaluated by its capacity to prolong this thrombin time relative to the control.
(§6) Under these conditions, the compounds of the invention permit a prolongation of the thrombin time of 50-fold and more. The effect of the inhibitors is measured, and the concentration which multiplies the thrombin time by 2 (CTT2) is determined.

[3] = test system: OFA rats; assay: Anticoagulant activity ex vivo, oral administration (conscious rats), thrombin time; format: in vivo, rat; conditions: 10 mg/kg orally
Method: Fasted OFA rats are anesthetized with ether. The cordal artery is exposed and catheterized. The catheter is flushed with citrated (1/40) physiological solution. After installation of the catheter, the animal is placed in a restraining cage and 1.5 cm^3 of arterial blood are withdrawn into 0.109M citrate (1/9).
1 hour after the animal has awoken, the test products are administered orally at a single dose of 10 mg/kg.
Arterial blood samples (1.5 ml) are then withdrawn at 30 minutes, 60 minutes and 2 hours.
As each sample is withdrawn, 1.5 ml of physio-logical solution are reinjected into the animals.
The blood tubes are centrifuged for 15 minutes at 3000 g for preparation of the plasma. The time of onset of the coagulation phenomenon is measured after adding Prest thrombin.
The results are reproduced in the following table, and show the factors by which the thrombin time is increased.

[4] = test system: thrombin time of rat platelet-poor plasma; assay: Anticoagulant activity: thrombin time in rat plasma; format: biochemical; conditions: for Rat CTT2 (concentration which multiplies the thrombin time by 2): rat plasma, 2 minutes at 37° C.
Method: as §1, §2, §3, §4, §5, §6

[5] = test system: OFA rats; assay: Anticoagulant activity ex vivo, intravenous administration, activated cephalin time; format: in vivo, rat; conditions: 0.5 mg/kg i.v., 15.5 min
[6] = target: T1, purified human activated factor X (Homo sapiens, UniProt P00742); assay: Inhibition of activated factor X; format: biochemical; conditions: substrate S 2765
T1 construct: purchased Stago
Method: (§7) To evaluate in vitro the selectivity of these products with respect to different serine proteases of fibrinolysis and of coagulation, the same protocol was applied to purified human plasmin (2 nM, Stago), to purified human activated protein C (2 nM, Stago), to purified human activated factor X (2 nM, Stago), to tissue plasminogen activator (2 nM, Calbiochem), to purified human urokinase (2 nM, Sigma) and to purified human plasma kallikrein (2 nM, Calbiochem), using different peptidyl para-nitroanilides as substrate: <Glu-Phe-Lys-pNA (0.50 mM, S 2403, Kabi) for plasmin, N-Cbo-Arg-Gly-Arg-pNA (0.38 mM, S 2765, Kabi) for factor Xa, <Glu-Pro-Arg-pNa (0.52 mM, S 2366, Kabi) for activated protein C, H-D-Pro-Phe-Arg-pNa (0.45 mM, S 2302, Kabi) for kallikrein, H-D-Ile-Pro-Arg-pNA (0.48 mM, S 2288, Kabi), <Glu-Gly-Arg-pNA (0.56 mM, S 2444, Kabi).
(§8) Inhibitors, enzymes and substrates are diluted in the same buffer ([…] buffer, pH 7.4, containing 0.12M sodium chloride and 0.05% of bovine serum albumin), and then distributed in a polystyrene microplate in a volume of […].
(§9) The fibrin formed by thrombin or by the para-nitroaniline liberated by the action of the serine protease is measured spectrophotometrically at 405 nm after 15 to 30 minutes of reaction at 20° C.

[7] = target: T2, purified human urokinase (Homo sapiens, UniProt P00749); assay: Inhibition of urokinase; format: biochemical; conditions: peptidyl para-nitroanilide substrate
T2 construct: purchased Sigma
Method: as §7, §8, §9

[8] = target: T3, purified human plasma kallikrein (Homo sapiens, UniProt P03952); assay: Inhibition of plasma kallikrein; format: biochemical; conditions: substrate S 2302; read-out: IC50 Kalli
T3 construct: to purified human plasma kallikrein (2 nM, Calbiochem); purchased Calbiochem
Method: as §7, §8, §9

[9] = target: T4, human thrombin (Homo sapiens, UniProt P00734); assay: Inhibition of human thrombin (fibrinogen or S2238 substrate); format: biochemical; conditions: for IC50: 20° C.; for selectivity with respect to the serine proteases of coagulation and of fibrinolysis compared with DUP 714: thrombin versus other serine proteases; for potency on human thrombin compared with DUP 714: with respect to human fibrinogen
T4 construct: human thrombin (Sigma, specific activity 3230 NIHU/mg); purchased Sigma
Method: To evaluate in vitro the inhibitory activity of the boro-arginine products with respect to human thrombin (Sigma, specific activity 3230 NIHU/mg), purified human fibrinogen ([…], Stago) (Fg) or the chromogenic substrate H-D-Phe-Pip-Arg-pNa ([…], S2238, Kabi) was added to a given quantity of thrombin (0.7 or 2 nM) incubated beforehand with or without the inhibitor under test (20° C., 10 minutes).
as §8, §9

[10] = target: T5, tissue plasminogen activator (Homo sapiens, UniProt P00750); assay: Inhibition of tissue plasminogen activator; format: biochemical; conditions: peptidyl para-nitroanilide substrate
T5 construct: purchased Calbiochem
Method: as §7, §8, §9

[11] = target: T6, purified human plasmin (Homo sapiens, UniProt P00747); assay: Inhibition of plasmin; format: biochemical; conditions: substrate S 2403
T6 construct: purified human plasmin (2 nM, Stago); purchased Stago
Method: as §7, §8, §9

[12] = test system: dogs; assay: Thrombopenia p.o. in dogs, platelet count; format: in vivo, dog
Method: (§10) The products were administered orally to dogs.2 hours and 4 hours after the treatment, and blood was withdrawn via the intravenous route. The plasma is prepared, platelets counted and the thrombin time test is carried out.

[13] = test system: dogs; assay: Anticoagulant activity p.o. in dogs, thrombin time; format: in vivo, dog
Method: as §10

[14] = target: T7, purified human activated protein C (Homo sapiens, UniProt P04070); assay: Inhibition of activated protein C; format: biochemical; conditions: substrate S 2366
T7 construct: purchased Stago
Method: as §7, §8, §9

[15] = chromogenic substrate S2238, read-out: IC50 Thrombin S2238
[16] = substrate purified human fibrinogen, read-out: IC50 Thrombin Fg

T3 sequence (P03952 391-638 limits assumed): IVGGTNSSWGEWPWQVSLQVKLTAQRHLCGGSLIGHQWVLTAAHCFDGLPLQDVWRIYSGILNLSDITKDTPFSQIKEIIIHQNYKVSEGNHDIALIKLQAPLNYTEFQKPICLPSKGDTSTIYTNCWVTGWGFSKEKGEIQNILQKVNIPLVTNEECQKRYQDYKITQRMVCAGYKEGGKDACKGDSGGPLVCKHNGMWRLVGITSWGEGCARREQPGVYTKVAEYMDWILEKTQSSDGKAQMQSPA
T3 sequence (P03952 20-390 limits assumed): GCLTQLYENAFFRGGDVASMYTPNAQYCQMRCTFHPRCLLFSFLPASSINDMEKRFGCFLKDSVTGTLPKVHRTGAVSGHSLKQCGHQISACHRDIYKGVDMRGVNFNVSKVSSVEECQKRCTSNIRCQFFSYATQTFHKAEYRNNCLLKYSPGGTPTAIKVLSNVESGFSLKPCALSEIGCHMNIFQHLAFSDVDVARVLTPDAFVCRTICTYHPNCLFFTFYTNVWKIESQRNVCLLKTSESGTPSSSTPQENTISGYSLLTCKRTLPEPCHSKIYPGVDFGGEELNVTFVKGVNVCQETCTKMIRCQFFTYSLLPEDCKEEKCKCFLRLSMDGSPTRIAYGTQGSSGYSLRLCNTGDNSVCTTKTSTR
T1 sequence (P00742 235-488 limits assumed): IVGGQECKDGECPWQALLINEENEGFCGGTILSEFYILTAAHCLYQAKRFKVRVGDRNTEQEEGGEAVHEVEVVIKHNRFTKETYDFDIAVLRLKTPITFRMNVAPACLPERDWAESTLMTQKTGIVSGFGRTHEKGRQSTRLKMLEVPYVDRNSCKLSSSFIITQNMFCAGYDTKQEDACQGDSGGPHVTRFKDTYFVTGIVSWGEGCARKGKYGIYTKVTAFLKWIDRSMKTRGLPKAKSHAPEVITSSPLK
T1 sequence (P00742 41-179 limits assumed): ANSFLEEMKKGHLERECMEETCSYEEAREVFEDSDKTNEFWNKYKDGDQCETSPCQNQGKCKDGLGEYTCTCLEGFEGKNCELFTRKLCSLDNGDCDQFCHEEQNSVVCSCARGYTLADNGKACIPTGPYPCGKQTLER
T6 sequence (P00747 581-810 limits assumed): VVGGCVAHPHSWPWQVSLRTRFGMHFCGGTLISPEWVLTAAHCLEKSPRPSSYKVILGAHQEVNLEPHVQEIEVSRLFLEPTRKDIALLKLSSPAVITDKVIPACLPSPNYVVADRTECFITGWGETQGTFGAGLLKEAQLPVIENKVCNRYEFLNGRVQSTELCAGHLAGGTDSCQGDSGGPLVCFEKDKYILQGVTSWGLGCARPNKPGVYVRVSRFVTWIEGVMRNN
T6 sequence (P00747 97-580 limits assumed): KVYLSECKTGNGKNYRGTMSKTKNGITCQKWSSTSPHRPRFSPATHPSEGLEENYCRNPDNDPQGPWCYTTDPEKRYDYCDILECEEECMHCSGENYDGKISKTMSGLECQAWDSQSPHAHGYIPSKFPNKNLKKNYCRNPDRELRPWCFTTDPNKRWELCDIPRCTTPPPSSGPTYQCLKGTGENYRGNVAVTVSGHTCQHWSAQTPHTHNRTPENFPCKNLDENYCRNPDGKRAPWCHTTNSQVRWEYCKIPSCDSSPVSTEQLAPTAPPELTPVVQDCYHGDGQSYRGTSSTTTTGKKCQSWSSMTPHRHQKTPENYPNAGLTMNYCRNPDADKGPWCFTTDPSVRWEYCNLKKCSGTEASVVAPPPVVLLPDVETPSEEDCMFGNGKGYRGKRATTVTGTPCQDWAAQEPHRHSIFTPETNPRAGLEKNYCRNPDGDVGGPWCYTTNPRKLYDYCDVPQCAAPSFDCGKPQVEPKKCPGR
T7 sequence (P04070 212-461 limits assumed): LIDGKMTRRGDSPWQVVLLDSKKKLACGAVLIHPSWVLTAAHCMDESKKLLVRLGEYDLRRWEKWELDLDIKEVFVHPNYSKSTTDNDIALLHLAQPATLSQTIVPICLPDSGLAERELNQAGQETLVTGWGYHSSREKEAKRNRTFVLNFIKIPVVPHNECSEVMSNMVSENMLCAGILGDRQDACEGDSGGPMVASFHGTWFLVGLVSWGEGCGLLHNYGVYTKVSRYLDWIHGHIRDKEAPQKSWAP
T7 sequence (P04070 43-197 limits assumed): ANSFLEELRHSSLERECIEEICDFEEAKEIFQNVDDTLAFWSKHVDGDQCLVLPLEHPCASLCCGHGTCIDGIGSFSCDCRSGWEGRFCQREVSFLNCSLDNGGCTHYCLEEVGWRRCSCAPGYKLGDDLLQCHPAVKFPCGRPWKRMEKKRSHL
T5 sequence (P00750 36-562): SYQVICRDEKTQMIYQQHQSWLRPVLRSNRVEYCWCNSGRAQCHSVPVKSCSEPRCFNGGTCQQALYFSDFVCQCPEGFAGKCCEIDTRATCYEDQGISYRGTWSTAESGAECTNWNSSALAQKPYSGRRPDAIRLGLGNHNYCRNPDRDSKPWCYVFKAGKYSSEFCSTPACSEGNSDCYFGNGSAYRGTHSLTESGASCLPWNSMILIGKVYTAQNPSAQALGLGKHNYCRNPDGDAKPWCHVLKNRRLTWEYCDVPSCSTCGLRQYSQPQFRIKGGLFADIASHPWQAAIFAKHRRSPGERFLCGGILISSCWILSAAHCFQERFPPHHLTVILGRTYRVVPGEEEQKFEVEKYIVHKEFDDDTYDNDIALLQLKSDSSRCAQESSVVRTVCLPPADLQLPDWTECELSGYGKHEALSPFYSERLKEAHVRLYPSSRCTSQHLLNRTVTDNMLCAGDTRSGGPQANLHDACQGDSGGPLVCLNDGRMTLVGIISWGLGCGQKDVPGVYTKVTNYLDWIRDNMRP

Compound | factor by which the coagulation time (ACT) is increased ([1]; 5 min) | factor by which the coagulation time (ACT) is increased ([1]; 15 min) | factor by which the coagulation time (ACT) is increased ([1]; 30 min) | factor by which the coagulation time (ACT) is increased ([1]; 60 min) | Man CTT2 (concentration which multiplies the thrombin time by 2) [2] [µM] | factor by which the thrombin time is increased ([3]; 0.5 hours) | factor by which the thrombin time is increased ([3]; 1 hour) | factor by which the thrombin time is increased ([3]; 2 hours) | Rat CTT2 (concentration which multiplies the thrombin time by 2) [4] [µM] | factor by which the coagulation time (ACT) is increased [5] | IC50 [6] [nM] | IC50 [7] [nM] | IC50 [8] [nM] | IC50 [9, 15] [nM] | IC50 [9, 16] [nM] | selectivity with respect to the serine proteases of coagulation and of fibrinolysis compared with DUP 714 [9] | IC50 [10] [nM] | IC50 [11] [nM] | Change in platelet count (% of control) ([12]; 5 mg/kg orally, 2 hr) [%] | IC50 [14] [nM] | other results
CC(=O)NC(Cc1ccccc1)C(=O)N1C(C(=O)NC(CCCNC(=N)N)B(O)O)CC2CCCCC21.CC(=O)O (mixture of isomers) [Ex. 3, 1-(R)-[(Ac-(RS)Phe-Phi)amino]-4-guanidinobutylboronic acid acetate] | 4.7 | 3.6 | 2.6 | 2.0 | 0.07 | 7.7 | 7.1 | 5.6 | 0.23 | 7.3 |  |  |  |  |  |  |  |  |  |  | factor by which concentration for doubling the thrombin time is less than DUP 714 ([2]; humans): 2.5
CC(=O)NC(Cc1ccccc1)C(=O)N1C2CCC(CC2)C1C(=O)NC(CCCNC(=N)N)B(O)O.CC(=O)O (mixture of isomers) [Ex. 23, 1-(R)-[(Ac-(RS)Phe-Abo)amino]-4-guanidinobutylboronic acid acetate] |  |  |  |  | 0.11 |  |  |  | 0.17 |  |  |  |  |  |  |  |  |  |  |  | concentration for doubling the thrombin time relative to DUP 714 ([4]; rats): one half
CC(=O)NC(Cc1ccccc1)C(=O)N(CC(=O)N[C@@H](CCCNC(=N)N)B(O)O)C1CCCC1.CC(=O)O (mixture of isomers) [Ex. 27, 1-(R)-{[Ac-(RS)Phe-(N-cyclopentyl)Gly]amino}-4-guanidinobutylboronic acid acetate] | 2.3 | 1.7 | 1.5 | 1.3 | 0.20 |  |  |  |  | 5 | 1760 | 3180 | 104 | 2.5 | 0.79 | greater selectivity | 38 | 735 | -4 | 149 | Change in platelet count (% of control) ([12]; 5 mg/kg orally, 4 hr): -1%; Increase factor TT ([13]; 5 mg/kg orally, 2 hr): 11; Increase factor TT ([13]; 5 mg/kg orally, 4 hr): 3
CC(=O)N[C@H](Cc1ccccc1)C(=O)N1CCC[C@H]1C(=O)N[C@@H](CCCN=C(N)N)B(O)O [DUP 714, Ac-(D)Phe-Pro-Arg-boronic acid, reference compound] | 3.4 | 2.0 | 1.7 | 1.4 | 0.18 | 4.0 | 3.7 | 3.9 | 0.32 | 7.6 | 41 | 24 | 8 |  |  |  | 8 | 28 |  | 17 | thrombopenia ([12]; 2.5 mg/kg orally): marked thrombopenia; Change in platelet count (% of control) ([12]; 2.5 mg/kg orally, 2 hr): -32%; Change in platelet count (% of control) ([12]; 2.5 mg/kg orally, 4 hr): -16%; Increase factor TT ([13]; 2.5 mg/kg orally, 2 hr): 7; Increase factor TT ([13]; 2.5 mg/kg orally, 4 hr): 2
CC(=O)N[C@H](Cc1ccccc1)C(=O)N(CC(=O)N[C@@H](CCCNC(=N)N)B(O)O)C1CCC1.CC(=O)O [Ex. 25, 1-(R)-{[Ac-(R)Phe-(N-cyclobutyl)Gly]amino}-4-guanidinobutylboronic acid acetate] |  |  |  |  |  |  |  |  |  |  | 356 | 1640 | 75 | 2 | 0.45 | greater selectivity | 14 | 818 |  | 211 | potency on human thrombin compared with DUP 714 [9]: more potent inhibitors of human thrombin than the reference compound
CC(=O)N[C@H](Cc1ccccc1)C(=O)N(CC(=O)N[C@@H](CCCN=C(N)N)B(O)O)C1CCCC1.CC(=O)O [Ex. 28, 1-(R)-{[Ac-(R)Phe-(N-cyclopentyl)Gly]amino}-4-guanidinobutylboronic acid acetate] |  |  |  |  | 0.19 |  |  |  |  |  | 225 | 1820 | 91 | 2 | 0.46 | greater selectivity | 47 | 445 | -4 | 82 | potency on human thrombin compared with DUP 714 [9]: more potent inhibitors of human thrombin than the reference compound; Change in platelet count (% of control) ([12]; 5 mg/kg orally, 4 hr): +1%; Increase factor TT ([13]; 5 mg/kg orally, 2 hr): 11; Increase factor TT ([13]; 5 mg/kg orally, 4 hr): 2
